Values joined by “and” are separate entries in the source; they are usually repeats but may differ in a detail not shown here. Equal entries are not always repeated. Where no end group is shown, it is not given here.

Data set [1] deals with MCAO model rats. Briefly: Cerebral infarction volume (TTC staining) in MCAO model rats. Conditions: rat, in vivo. As to the method:
The focal cerebral ischemia-reperfusion model was prepared according to the reversible middle cerebral artery occlusion (MCAO) suture method proposed by Longa with modifications in view of the anatomical structure of the rat brain. The rats were anesthetized by intraperitoneal administration of 10% chloral hydrate at a dose of […]. After anesthetization, a cut was created at the cervical midline, and the common carotid artery (CCA), external carotid artery (ECA) and pterygopalatine artery were exposed. The head portion (0.5 cm) of a monofilament nylon fishing line (0.26 mm) was coated with paraffin and a mark was made at 20 mm. All rats were inserted through the right CCA incision, and the pterygopalatine artery was temporarily clamped to prevent mis-insertion. The length of the occlusion line was about 18-20 mm from the bifurcation of CCA depending on the animal's weight, thereby occluding middle cerebral artery on the right side. The skin was then sewed, and the tail end of the occlusion line was partially fixed to the skin. After a period of ischemia for 2 hours, the occlusion line was carefully pulled out to form a reperfusion. The procedure steps for the sham control were the same as the surgery group, except for insertion of a nylon fishing line. The body temperature was maintained at 37±0.5° C. during the ischemia period and 2 h after reperfusion.
The used animals were male adult SD rats (Vittalia) of SPF grade with body weight of 220-250 g.
No drugs were administered to the normal group and the sham group.
The rats were sacrificed by decapitation after scoring. The brain tissues were quickly removed and placed in a refrigerator at −20° C. After 10 minutes, the tissues were placed in a room temperature environment. The brains were placed in a rat brain section mold. After the olfactory bulb, cerebellum and low brain stem were removed, the brains were coronally cut five times at 2 mm thickness as shown in the profile to obtain six continuous raw coronal slices. Then, the brain sections were quickly placed in a 5 ml solution containing 2% TTC, and incubated at 37° C. for 30 minutes in the dark, during which the brain sections were flipped once every 5 minutes. With the TTC staining, the normal tissue would be rose red, and the infarcted tissue would be unstained and retained white. Each group of brain sections was arranged neatly, and photographed. The photos were processed by an image analysis system software and statistically analyzed. The infarction area of each brain section was calculated, and multiplied by the thickness of each brain section (2 mm). The products of the infarction area of individual brain section multiplied by the thickness were summed to obtain the cerebral infarction volume for each animal. The volumes were expressed as percentages accounting for the cerebral hemisphere to eliminate the effects of cerebral edema.

Data set [2] relates to MCAO model rats. In words: HE staining for histological changes in brains of MCAO rats. It is filed as in vivo, rat. Conditions: therapeutic and prophylactic administration, 10 mg/kg, 24 h after ischemia. As to the method: The rats in each group were decapitated at 24 h after ischemia, and the resultant brain was coronally sectioned near the optic chiasm with a thickness of about 4 mm. The sections were fixed with 10% formalin solution and dehydrated with alcohol with a concentration gradient from 70% to 100%. The sections were permeabilized twice in xylene, and embedded in paraffin. The paraffin block was carefully trimmed, and immobilized on a paraffin slicing machine, and sliced to sections with a thickness of 4 μm. The paraffin sections were completely unfolded, attached to a clean and dry glass slide, and stored in a refrigerator at 4° C. Conventional HE staining was performed, and the staining results were observed by light microscopy.

The test system of data set [3] is rats. In words: Acute toxicity test on rats. The format is in vivo, rat. Conditions: 200 mg/kg body weight. As to the method: Acute toxicity tests were performed on rats.

As to “YGRKKRRQRRRKLSSIESDV [NA-1, reference compound]”, the “Mean of infarction volume percentage” value in data set [1] is 38.56%.
For the molecule `CC[C@H](C)[C@H](NC(=O)[C@H](CCC(=O)O)NC(=O)[C@@H](NC(=O)[C@H](CC(=O)O)NC(=O)[C@H](CC(C)C)NC(=O)[C@H](CC(C)C)NC(=O)[C@H](CCCCN)NC(=O)[C@H](CCC(=O)O)NC(=O)[C@H](Cc1ccc(O)cc1)NC(=O)[C@H](CCCNC(=N)N)NC(=O)[C@H](CCCNC(=N)N)NC(=O)[C@H](CCCNC(=N)N)NC(=O)[C@H](CCC(N)=O)NC(=O)[C@H](CCCNC(=N)N)NC(=O)[C@H](CCCNC(=N)N)NC(=O)[C@H](CCCCN)NC(=O)[C@H](CCCCN)NC(=O)[C@H](CCCNC(=N)N)NC(=O)CNC(=O)[C@@H](N)Cc1ccc(O)cc1)[C@@H](C)O)C(=O)O` [P5], in data set [2], the “pathological changes of brain tissue (HE staining)” value is on record as “significantly improved”. Also, in data set [1], the “Mean of infarction volume percentage” value was 24.84% and 36.54% and 43.22%. In addition, in data set [1] (1 mg/kg), the “Mean of infarction volume percentage” value is reported as 44.23% and the “Reduction of infarction volume percentage vs model group” value is 3.76%. Moreover, in data set [1] (3 mg/kg), the “Mean of infarction volume percentage” value is given as 35.66%, the “Reduction of infarction volume percentage vs model group” value amounted to 22.41% and the “effect on cerebral infarction volume” value is on record as “desirably reduced the cerebral infarction volume”. Also, in data set [1] (10 mg/kg), the “Mean of infarction volume percentage” value is listed as 19.54%, the “Reduction of infarction volume percentage vs model group” value is reported as 57.48% and the “reduction of cerebral infarction volume” value was “about 50%”. Moreover, in data set [3], the acute toxicity result was “no lethal effect and other obvious toxic side effects”.
On to “YGRKKRRQRRRYEKLSSIESDV [YE-NA-1, reference compound]”, for which the “Mean of infarction volume percentage” value in data set [1] is reported as 33.96%.
